Results taken from ChEMBL document CHEMBL3817741, “Synthesis, cytotoxic and urease inhibitory activities of some novel isatin-derived bis-Schiff bases and their copper(ii) complexes” (Medchemcomm, 2016).

Columns and labels:
[1] = system: NCI-H157; experiment: Antiproliferative activity against human NCI-H157 cells assessed as cell growth inhibition after 48 hrs by SRB assay; type: functional, cell-based; settings: NCI-H157, 48 h
[2] = Antiproliferative activity against African green monkey Vero cells assessed as reduction in cell viability at 100 uM after 48 hrs by SRB assay; type: cell-based; settings: chlorocebus sabaeus
[3] = target: Urease (Canavalia ensiformis, UniProt P07374); experiment: Inhibition of Jack bean urease assessed as production of ammonia after 30 mins by indophenol method
[4] = target: Urease (Canavalia ensiformis) (UniProt P07374); experiment: Inhibition of Jack bean urease assessed as production of ammonia at 10 mM after 30 mins by indophenol method
Sequence of Urease (Canavalia ensiformis) (P07374 whole entry, looked up): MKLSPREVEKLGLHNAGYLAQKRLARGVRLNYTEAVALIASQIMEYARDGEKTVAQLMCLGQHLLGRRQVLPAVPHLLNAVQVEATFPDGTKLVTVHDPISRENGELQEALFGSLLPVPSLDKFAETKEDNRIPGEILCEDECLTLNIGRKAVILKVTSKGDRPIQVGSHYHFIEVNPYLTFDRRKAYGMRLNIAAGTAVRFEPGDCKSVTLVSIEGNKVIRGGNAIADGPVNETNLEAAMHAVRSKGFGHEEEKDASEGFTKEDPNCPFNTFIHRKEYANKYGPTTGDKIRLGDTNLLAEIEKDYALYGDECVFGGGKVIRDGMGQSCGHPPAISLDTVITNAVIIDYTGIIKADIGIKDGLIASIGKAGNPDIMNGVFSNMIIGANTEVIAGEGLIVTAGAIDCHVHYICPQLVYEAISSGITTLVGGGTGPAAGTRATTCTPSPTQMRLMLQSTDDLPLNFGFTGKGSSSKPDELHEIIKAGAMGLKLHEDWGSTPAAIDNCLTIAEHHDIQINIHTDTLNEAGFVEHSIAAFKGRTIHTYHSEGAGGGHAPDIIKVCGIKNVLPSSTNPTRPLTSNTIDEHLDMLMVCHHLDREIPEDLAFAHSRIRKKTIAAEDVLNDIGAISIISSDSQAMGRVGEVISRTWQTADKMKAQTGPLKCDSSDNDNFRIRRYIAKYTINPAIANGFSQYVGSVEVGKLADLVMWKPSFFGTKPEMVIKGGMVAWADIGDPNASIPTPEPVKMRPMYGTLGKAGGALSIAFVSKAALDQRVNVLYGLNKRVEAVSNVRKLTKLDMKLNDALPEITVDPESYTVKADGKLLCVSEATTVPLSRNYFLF

Sequence of Urease (P07374 whole entry): as the sequence (P07374 whole entry, looked up) above

| SMILES | IC50 [1] [nM] | inhibition at 48 h, 100 µM [2] [%] | IC50 [3] [nM] | inhibition [4] [%] |
| --- | --- | --- | --- | --- |
| Cc1ccc(/N=C2\C(=O)Nc3ccc(F)cc32)cc1/N=C1\C(=O)Nc2ccc(F)cc21 | 2990 | 22.1 | 1650 | > 50 |
| Cc1ccc(/N=C2\C(=O)Nc3ccccc32)cc1/N=C1\C(=O)Nc2ccccc21 | 3760 | 23.6 | 1150 | > 50 |
| Cc1ccc(/N=C2\C(=O)Nc3ccc([N+](=O)[O-])cc32)cc1/N=C1\C(=O)Nc2ccc([N+](=O)[O-])cc21 | 3730 | 10.9 | 5860 | > 50 |
| Cc1ccc(/N=C2\C(=O)Nc3ccc(Cl)cc32)cc1/N=C1\C(=O)Nc2ccc(Cl)cc21 | 2560 | 18.5 | 110 | > 50 |
| Cc1ccc(/N=C2\C(=O)Nc3ccc(Br)cc32)cc1/N=C1\C(=O)Nc2ccc(Br)cc21 | 2320 | 18.7 | 40 | > 50 |
| Cc1ccc2c(c1)/C(=N/c1ccc(C)c(/N=C3\C(=O)Nc4ccc(C)cc43)c1)C(=O)N2 | 3010 | 13.4 | 340 | > 50 |
| Cc1ccc(/N=C2\C(=O)Nc3ccc(S(=O)(=O)O)cc32)cc1/N=C1\C(=O)Nc2ccc(S(=O)(=O)O)cc21 | 3880 | 11.7 | 25200 | > 50 |
| CC[C@]1(O)C[C@H]2CN(CCc3c([nH]c4ccccc34)[C@@](C(=O)OC)(c3cc4c(cc3OC)N(C=O)[C@H]3[C@@](O)(C(=O)OC)[C@H](OC(C)=O)[C@]5(CC)C=CCN6CC[C@]43[C@@H]65)C2)C1 [VINCRISTINE] | – | 16.8 | – | – |
